In assay [1] the test system is Wolbachia in adult male Onchocerca ochengi. In words: Adult Onchocerca ochengi mouse model, Wolbachia wsp qPCR. The assay is classed as in vivo. The settings on record: CB.17(BALB/c) SCID mice implanted with male O. ochengi, oral, 25 MK bid + 28 d. An excerpt: Viable male Onchocerca ochengi were aseptically isolated from naturally parasitized cattle. Between 10-11 male Onchocerca were surgically implanted into the peritoneal cavity of CB.17(BALB/c) SCID mice under anaesthesia. […] 38 Days after O. ochengi surgical implantation, mice were necropsied to recover the live worms. Genomic DNA was extracted from individual adult worms (10/group) and quantification of the O. ochengi-specific Wolbachia surface protein (wsp) performed by quantitative PCR. Data in Table 6 is expressed as a reduction in Wolbachia load in comparison to the vehicle control group.
For orientation: Real-time PCR tracks product formation cycle by cycle.

Assay [2] relates to Wolbachia of the target parasite, Brugia malayi. In words: In vitro microfilariae (Mf) Brugia malayi screen, wsp/gst qPCR. The settings on record: B. malayi Mf, 6 days. Type of assay: cell-based. The protocol: An in vitro microfilariae (Mf) assay was used to screen against Wolbachia of the target parasite, Brugia malayi. The Mf were obtained by peritoneal lavage of gerbils (Meriones unguiculatus) harbouring a patent infection of Brugia malayi as described previously (Griffiths et al., 2010, Lab Animal).
Mf were purified using a PD-10 desalting column (Fisher) followed by centrifugation (1200 rpm for 5 minutes at room temperature) then re-suspended in filter-sterilised culture medium consisting of RPMI supplemented with heat-inactivated Foetal Calf Serum (HI-FCS), 1% Penicillin-Streptomycin and 1% Amphotericin B.
After determining the concentration of Mf, the stock solution was diluted in culture medium to ensure a final concentration of 8000 Mf/well of a 96 well plate (100 μl per well). Compounds to be tested (10 mM stock in 100% DMSO) were diluted to appropriate working concentrations in culture medium and 100 μl was added to the appropriate wells of the 96 well plate containing the Mf. Five replicates were used for each compound and each plate contained doxycycline (5 μM) and vehicle (DMSO) controls. The plates were incubated at 37° C., 5% CO2, for 6 days.
On day 6, a visual assessment of motility was performed and wells scored from 0 to 4 (where 0=no movement and 4=highly motile) in order to assess whether there were any direct effects against the Mf. To perform the anti-Wolbachia readout, DNA was extracted from each individual well using the QIAmp DNA Mini Kit (Qiagen) ‘DNA Purification from Tissues’ protocol.
The number of Wolbachia present in Mf was assessed by quantification of the Wolbachia surface protein (wsp) gene copy number and normalised to the nematode glutathione S-transferase (gst) gene by qPCR based on methods described by McGarry et al., 2004, Mol Biochem Parasitol. DNA samples were amplified in duplicate in the following 20 μl reactions containing 1× QuantiTect SYBR Green PCR master mix (Qiagen): for wsp, 0.3 μM each of forward ([…]) and reverse ([…]) primer, 3 mM MgCl2 and 2 μl of DNA. For gst, 0.35 μM of forward ([…]) and reverse primer (ATCACGGACGCCTTCACAG), 3.5 mM MgCl2 and 1 μl of DNA. qPCR was performed using the Bio-Rad CFX384 C1000 thermal cycler (Bio-Rad laboratories LTD) with a denaturation step of 95° C. for 15 min then 40 cycles at 95° C. for 15 s, 57° C. (gst) or 60° C. (wsp) for 30 s, and 72° C. for 30 s. Quantification was determined by Bio-Rad CFX manager software by comparing the DNA samples to that of a standard curve generated from serial dilution of plasmid DNA of the appropriate gene. Data in Table 3 are expressed as a reduction in Wolbachia load in comparison to the vehicle control group and normalized by positive control (doxycycline at 5 μM).

Assay [3] deals with Wolbachia in Brugia malayi larvae. In words: Larval Brugia malayi mouse model, Wolbachia wsp qPCR. Type of assay: in vivo. Conditions: BALB/c IL4Rα−/− mice, oral, 25 MK bid + 14 d; larvae recovered 14 days post-infection. An excerpt: In a larval Brugia malayi mouse model treatment groups (BALB/c IL4Rα−/− mice, 6-8 week old) received compounds by oral delivery for 7 to 14 days commencing on the day of intraperitoneal infection with Brugia malayi third-stage larvae. At 14 days post-infection, larvae were recovered from the peritoneal cavity, counted, and length measured. Genomic DNA was extracted from individual worms (10/group) and quantification of the Wolbachia surface protein (wBm-wsp) gene copy numbers performed by quantitative PCR.
Treatment dosage unit is mg/kg (MK) and duration stated in days (d). Abbreviations: DOX (doxycycline), bid (twice daily), Ms (mesylate). Data in Table 4 are expressed as a reduction in Wolbachia load in comparison to the vehicle control group.

SMILES strings stand for the structures.

As for `C[C@H]1c2cccc(O)c2C(=O)C2=C(O)[C@]3(O)C(=O)C(C(N)=O)=C(O)[C@@H](N(C)C)[C@@H]3[C@@H](O)[C@@H]21` [DOX, doxycycline, reference compound], the “% Wolbachia reduction cf median Vehicle” value in assay [1] is 98.7%; in assay [3] it was 99.05%. Further, the figures for the “% Reduction level normalised to DOX (5 μm)” value in assay [2] (500 nM) and in assay [2] (5 μM) were 92.9% and 100.0%, respectively. The “% Wolbachia reduction cf. DMSO” value in assay [2] (500 nM) turned out to be 80.0%; in assay [2] (5 μM), 89.6%.

Values taken from patent US11518760B2 (Liverpool School of Tropical Medicine, priority 2017, dated 2022).
